This is an account of results in patent US7074789B2, “Kinase inhibitors” (Amgen Inc., priority 1999, dated 2006).

The structures appear in SMILES notation.

What all share (assay type): biochemical
In one experiment the target is T1, Lck (Homo sapiens, UniProt P06239).
T1 construct: Kinases are expressed as either kinase domains or full length constructs; made in house
Description: Kinase inhibition assay (33P transfer), Lck. Particulars: read-out: Lck-1. In short, it runs like this:
(§1)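 Liquid scintillation counting of 33P on plate-bound synthetic substrates gives kinase activity. Plates are washed in 0.5% phosphoric acid first; kinases are tagged recombinant proteins from E. coli or baculovirus-infected High Five cells.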

The next experiment concerns the target T2, Zap-70 (Homo sapiens, UniProt P43403).
T2 construct: Kinases are expressed as either kinase domains or full length constructs; made in house
T2 sequence (P43403 1-619): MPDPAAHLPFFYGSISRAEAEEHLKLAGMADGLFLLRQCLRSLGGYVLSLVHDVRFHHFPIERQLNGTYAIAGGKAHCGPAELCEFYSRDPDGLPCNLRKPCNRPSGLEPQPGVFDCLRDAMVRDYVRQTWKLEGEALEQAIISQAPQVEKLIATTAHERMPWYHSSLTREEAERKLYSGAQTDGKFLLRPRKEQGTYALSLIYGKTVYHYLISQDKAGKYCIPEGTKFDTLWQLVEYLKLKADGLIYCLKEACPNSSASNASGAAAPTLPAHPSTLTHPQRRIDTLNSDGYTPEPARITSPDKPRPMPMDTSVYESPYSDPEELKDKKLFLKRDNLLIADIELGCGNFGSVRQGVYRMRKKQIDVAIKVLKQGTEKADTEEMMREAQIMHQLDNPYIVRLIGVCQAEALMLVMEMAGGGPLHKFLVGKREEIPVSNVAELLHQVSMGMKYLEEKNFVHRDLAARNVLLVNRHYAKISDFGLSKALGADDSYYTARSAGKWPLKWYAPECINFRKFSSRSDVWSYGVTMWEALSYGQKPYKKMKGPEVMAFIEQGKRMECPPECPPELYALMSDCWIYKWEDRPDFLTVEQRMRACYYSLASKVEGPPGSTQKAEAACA
Description: Kinase inhibition assay (33P transfer), Zap-70. The following applies: read-out: Zap-1. In short, it runs like this: as §1

For the next experiment, the target named is T3, Itk (Homo sapiens, UniProt Q08881).
T3 construct: Kinases are expressed as either kinase domains or full length constructs; made in house
T3 sequence (Q08881 1-620): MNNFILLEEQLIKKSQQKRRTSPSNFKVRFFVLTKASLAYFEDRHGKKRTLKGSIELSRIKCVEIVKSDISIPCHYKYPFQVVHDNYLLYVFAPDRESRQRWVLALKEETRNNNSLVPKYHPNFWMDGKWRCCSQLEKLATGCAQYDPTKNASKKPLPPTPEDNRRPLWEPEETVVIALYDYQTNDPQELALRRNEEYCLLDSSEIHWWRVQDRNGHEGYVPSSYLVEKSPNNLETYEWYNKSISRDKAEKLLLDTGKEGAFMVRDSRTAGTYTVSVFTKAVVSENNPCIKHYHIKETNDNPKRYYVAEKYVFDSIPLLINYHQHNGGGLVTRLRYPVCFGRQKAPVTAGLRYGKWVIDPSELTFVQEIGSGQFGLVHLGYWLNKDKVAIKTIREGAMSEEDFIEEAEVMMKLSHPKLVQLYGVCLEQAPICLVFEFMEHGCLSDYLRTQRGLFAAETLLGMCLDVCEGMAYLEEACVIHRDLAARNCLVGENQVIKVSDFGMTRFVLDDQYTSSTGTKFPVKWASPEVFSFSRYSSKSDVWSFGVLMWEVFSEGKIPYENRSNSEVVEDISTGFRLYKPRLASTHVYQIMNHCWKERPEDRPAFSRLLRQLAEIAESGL
Description: Kinase inhibition assay (33P transfer), Itk. Particulars: read-out: Itk-1. In short, it runs like this:
(§2)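 GST/His-fusion kinases, E. coli or High Five expressed, affinity purified; 33P-ATP, plate-coated poly(Glu,Tyr) 4:1 or poly(Arg,Ser) 3:1; 0.5% H3PO4 wash, scintillant, LSC.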

For another experiment, the target named is T4, EGFR (Homo sapiens, UniProt P00533).
T4 construct: Kinases are expressed as either kinase domains or full length constructs; made in house
T4 sequence (P00533 25-1210, species assumed): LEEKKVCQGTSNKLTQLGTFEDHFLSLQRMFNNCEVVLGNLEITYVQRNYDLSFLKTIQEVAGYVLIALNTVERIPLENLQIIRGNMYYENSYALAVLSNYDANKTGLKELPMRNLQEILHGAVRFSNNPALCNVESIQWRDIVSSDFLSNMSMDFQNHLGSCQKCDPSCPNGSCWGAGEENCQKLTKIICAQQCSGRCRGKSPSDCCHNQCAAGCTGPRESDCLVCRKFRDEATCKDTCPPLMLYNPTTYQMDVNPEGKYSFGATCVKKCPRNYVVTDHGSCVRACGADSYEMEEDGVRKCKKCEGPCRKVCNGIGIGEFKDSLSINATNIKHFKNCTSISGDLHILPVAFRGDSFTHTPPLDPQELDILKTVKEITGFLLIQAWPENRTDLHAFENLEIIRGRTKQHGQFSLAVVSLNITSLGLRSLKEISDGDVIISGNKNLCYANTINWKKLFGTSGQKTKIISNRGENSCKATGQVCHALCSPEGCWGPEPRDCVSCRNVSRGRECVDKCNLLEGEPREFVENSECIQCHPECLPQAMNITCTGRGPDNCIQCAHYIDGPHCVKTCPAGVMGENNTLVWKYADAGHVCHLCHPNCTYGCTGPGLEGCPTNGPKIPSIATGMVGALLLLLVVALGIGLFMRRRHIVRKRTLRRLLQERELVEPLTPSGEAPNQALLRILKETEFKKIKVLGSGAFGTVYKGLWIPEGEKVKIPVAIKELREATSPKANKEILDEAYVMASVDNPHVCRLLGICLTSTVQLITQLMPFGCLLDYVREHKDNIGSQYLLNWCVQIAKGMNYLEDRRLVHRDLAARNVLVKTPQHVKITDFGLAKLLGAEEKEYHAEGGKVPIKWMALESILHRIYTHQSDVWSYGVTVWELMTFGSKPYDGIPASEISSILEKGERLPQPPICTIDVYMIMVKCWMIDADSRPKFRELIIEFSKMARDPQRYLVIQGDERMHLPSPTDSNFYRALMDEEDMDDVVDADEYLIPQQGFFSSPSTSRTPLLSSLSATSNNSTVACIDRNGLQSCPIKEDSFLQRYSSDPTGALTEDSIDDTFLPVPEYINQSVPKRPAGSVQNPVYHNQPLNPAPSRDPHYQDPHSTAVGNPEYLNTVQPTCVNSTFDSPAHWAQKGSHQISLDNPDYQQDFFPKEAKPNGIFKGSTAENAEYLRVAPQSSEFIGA
Description: Kinase inhibition assay (33P transfer), EGFR. Particulars: Table 2, kinase inhibition class; read-out: EGFR-1. In short, it runs like this: as §2

A further experiment has as its target T5, ErbB2 (Homo sapiens, UniProt P04626).
T5 construct: Kinases are expressed as either kinase domains or full length constructs; made in house
Description: Kinase inhibition assay (33P transfer), ErbB2. Particulars: read-out: ErbB2-2. In short, it runs like this:
as §2

Another experiment has as its target T6, Kdr (Homo sapiens, UniProt P35968).
T6 construct: Kinases are expressed as either kinase domains or full length constructs; made in house
Description: Kinase inhibition assay (33P transfer), Kdr. Particulars: read-out: KDR-1. In short, it runs like this:
as §1

In another experiment the target is T7, c-Met (Homo sapiens, UniProt P08581).
T7 construct: Kinases are expressed as either kinase domains or full length constructs; made in house
Description: Kinase inhibition assay (33P transfer), c-Met. The following applies: Table 2, kinase inhibition class; read-out: Met-1. In short, it runs like this: as §2

Another experiment deals with T8, AKT (Homo sapiens, UniProt Q9Y243).
T8 construct: Kinases are expressed as either kinase domains or full length constructs; made in house
T8 sequence (Q9Y243 whole entry, the tested form may be a part): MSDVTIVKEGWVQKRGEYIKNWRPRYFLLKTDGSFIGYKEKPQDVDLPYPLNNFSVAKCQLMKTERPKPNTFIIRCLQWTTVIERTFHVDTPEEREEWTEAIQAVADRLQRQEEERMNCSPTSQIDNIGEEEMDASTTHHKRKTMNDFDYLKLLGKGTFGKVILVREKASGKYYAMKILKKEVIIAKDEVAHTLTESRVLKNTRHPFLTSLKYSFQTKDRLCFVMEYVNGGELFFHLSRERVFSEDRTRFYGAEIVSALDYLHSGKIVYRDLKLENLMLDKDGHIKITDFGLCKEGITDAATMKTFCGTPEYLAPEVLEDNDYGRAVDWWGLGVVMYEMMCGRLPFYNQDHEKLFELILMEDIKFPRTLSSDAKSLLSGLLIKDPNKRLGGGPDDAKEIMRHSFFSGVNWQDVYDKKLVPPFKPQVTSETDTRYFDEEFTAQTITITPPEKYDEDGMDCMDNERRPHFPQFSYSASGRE
Description: Kinase inhibition assay (33P transfer), AKT. Particulars: Table 2, kinase inhibition class; read-out: AKT3-1. In short, it runs like this: as §1

A further experiment has as its target T9, IGFR-1 (Homo sapiens, UniProt P08069).
T9 construct: Kinases are expressed as either kinase domains or full length constructs; made in house
Description: Kinase inhibition assay, IGFR-1 (Table 2). Particulars: Table 2, kinase inhibition class.

For another experiment, the target named is T10, PDGFRB (Homo sapiens, UniProt P09619).
T10 construct: Kinases are expressed as either kinase domains or full length constructs; made in house
Description: Kinase inhibition assay (33P transfer), PDGFRB. Particulars: read-out: PDGFRB-1.

T1 sequence (P06239 whole entry, species assumed, the tested form may be a part): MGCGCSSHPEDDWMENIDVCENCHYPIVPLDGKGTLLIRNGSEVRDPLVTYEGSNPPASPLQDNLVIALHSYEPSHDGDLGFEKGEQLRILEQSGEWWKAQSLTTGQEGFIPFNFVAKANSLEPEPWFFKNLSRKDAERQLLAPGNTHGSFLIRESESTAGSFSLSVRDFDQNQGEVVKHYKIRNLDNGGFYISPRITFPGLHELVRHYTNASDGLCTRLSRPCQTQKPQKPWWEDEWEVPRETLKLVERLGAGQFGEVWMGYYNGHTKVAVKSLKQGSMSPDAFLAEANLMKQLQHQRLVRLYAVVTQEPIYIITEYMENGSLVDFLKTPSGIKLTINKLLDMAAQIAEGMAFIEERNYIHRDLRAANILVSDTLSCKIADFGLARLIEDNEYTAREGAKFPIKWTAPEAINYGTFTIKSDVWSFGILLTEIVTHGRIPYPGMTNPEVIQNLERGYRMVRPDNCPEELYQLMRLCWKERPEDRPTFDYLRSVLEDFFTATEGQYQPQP
T9 sequence (P08069 31-1367): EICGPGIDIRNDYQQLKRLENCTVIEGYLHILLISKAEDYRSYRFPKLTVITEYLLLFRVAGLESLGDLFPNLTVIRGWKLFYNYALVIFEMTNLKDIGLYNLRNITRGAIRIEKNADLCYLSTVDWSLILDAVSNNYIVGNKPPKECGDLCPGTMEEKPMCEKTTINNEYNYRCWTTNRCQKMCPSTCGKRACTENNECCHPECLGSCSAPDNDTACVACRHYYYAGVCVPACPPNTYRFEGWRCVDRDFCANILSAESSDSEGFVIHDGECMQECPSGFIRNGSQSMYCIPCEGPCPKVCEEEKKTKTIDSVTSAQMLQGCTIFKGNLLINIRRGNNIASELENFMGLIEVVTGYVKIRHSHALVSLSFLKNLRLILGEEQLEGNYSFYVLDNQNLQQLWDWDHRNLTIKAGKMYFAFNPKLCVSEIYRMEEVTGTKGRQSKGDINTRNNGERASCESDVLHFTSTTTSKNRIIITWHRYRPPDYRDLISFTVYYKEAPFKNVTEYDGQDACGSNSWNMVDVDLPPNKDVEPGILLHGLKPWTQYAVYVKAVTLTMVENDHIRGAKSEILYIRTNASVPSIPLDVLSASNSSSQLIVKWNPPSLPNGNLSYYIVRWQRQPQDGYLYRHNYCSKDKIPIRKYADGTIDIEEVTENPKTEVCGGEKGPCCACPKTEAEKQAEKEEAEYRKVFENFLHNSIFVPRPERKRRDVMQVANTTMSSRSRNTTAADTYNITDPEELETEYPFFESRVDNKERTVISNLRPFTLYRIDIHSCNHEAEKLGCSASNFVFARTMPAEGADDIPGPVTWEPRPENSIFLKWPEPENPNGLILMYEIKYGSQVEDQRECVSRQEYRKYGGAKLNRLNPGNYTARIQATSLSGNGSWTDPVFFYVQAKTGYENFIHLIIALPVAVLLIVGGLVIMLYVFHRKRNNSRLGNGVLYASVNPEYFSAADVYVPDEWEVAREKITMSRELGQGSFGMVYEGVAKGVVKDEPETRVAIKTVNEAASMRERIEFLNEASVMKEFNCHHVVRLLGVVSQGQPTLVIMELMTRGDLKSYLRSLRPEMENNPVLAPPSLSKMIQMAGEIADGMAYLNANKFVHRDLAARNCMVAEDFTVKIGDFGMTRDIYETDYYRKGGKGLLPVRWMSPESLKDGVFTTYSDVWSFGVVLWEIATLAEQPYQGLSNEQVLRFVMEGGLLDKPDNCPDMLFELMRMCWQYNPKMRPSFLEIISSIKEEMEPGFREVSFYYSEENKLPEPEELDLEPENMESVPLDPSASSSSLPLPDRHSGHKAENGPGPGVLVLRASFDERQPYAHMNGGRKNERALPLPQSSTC
T5 sequence (P04626 23-1255, species assumed): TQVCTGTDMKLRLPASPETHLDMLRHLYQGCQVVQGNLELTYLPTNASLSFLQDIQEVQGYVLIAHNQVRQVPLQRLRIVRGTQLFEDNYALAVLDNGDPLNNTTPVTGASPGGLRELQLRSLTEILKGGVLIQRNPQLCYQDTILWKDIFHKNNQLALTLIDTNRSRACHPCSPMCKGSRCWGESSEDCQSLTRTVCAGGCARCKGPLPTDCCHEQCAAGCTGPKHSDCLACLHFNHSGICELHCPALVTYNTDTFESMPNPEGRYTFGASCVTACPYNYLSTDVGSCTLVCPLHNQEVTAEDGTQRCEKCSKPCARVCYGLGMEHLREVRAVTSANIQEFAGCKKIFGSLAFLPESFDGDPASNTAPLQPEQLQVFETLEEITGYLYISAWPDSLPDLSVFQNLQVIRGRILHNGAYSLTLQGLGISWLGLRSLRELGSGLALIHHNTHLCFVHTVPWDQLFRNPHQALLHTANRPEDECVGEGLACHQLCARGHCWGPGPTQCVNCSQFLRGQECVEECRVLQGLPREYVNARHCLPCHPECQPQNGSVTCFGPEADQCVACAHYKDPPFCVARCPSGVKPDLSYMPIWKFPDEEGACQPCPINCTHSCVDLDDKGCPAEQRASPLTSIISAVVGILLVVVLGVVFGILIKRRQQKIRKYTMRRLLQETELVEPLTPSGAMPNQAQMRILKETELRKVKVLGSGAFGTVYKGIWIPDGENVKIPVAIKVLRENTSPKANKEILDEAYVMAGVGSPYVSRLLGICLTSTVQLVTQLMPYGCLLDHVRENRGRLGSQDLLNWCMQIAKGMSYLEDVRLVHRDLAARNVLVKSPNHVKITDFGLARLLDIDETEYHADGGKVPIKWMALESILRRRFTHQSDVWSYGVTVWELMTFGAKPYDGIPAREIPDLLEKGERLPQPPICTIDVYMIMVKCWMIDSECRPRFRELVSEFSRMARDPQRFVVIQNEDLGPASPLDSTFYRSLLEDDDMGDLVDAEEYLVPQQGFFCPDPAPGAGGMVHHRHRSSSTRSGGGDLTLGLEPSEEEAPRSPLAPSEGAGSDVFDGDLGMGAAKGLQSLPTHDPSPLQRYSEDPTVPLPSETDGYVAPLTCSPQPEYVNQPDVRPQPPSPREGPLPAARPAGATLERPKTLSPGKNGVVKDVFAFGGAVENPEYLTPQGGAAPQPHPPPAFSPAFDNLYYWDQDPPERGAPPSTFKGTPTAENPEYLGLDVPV

Regarding `CCN(CC)CCNc1ncnc(N(C)c2cccc(Cl)c2)n1` [Compound 745], the IC50 at Lck is greater than 13.4 µM; on Zap-70 it was greater than 13.4 µM; on Itk, greater than 13.4 µM; on EGFR it was 1.19 to 7.17 µM; on ErbB2, greater than 13.4 µM; on Kdr it was greater than 13.4 µM. In addition, the IC50 on c-Met, on AKT, at IGFR-1 and at PDGFRB was greater than 13.4 µM each time.
As to `Cc1ccc2c(c1)CCCN2c1ncnc(Nc2cccc(CO)c2)n1` [Compound 770], the IC50 at Lck is less than 1.15 µM; on Zap-70 it was greater than 13 µM; on Itk, greater than 13 µM; at EGFR it was less than 1.15 µM; at ErbB2 it was less than 1.15 µM; at Kdr it was 1.15 to 6.91 µM. Further, the IC50 on c-Met is less than 1.15 µM; at AKT, greater than 13 µM; on IGFR-1 it was 10.1 to 13 µM; at PDGFRB it was less than 1.15 µM.
Turning to `Cc1ccc2c(c1)CCCN2c1ncnc(Nc2ccc3ncsc3c2)n1` [Compound 773], the IC50 on Lck was 1.07 to 6.41 µM; on Zap-70, greater than 12 µM; on Itk, 1.07 to 6.41 µM; on EGFR, 1.07 to 6.41 µM; at ErbB2 it was 1.07 to 6.41 µM; on Kdr, 1.07 to 6.41 µM. For the same compound, the IC50 at c-Met is less than 1.07 µM; at AKT, greater than 12 µM; on IGFR-1, 1.07 to 6.41 µM; at PDGFRB it was less than 1.07 µM.
As to `COc1ccc2c(c1)CCCN2c1ncnc(Nc2cc(OC)c(OC)c(OC)c2)n1` [Compound 631], the IC50 was less than 0.945 µM on Lck; greater than 10.6 µM at Zap-70; greater than 10.6 µM on Itk; 0.945 to 5.67 µM at EGFR; 0.945 to 5.67 µM at ErbB2; less than 0.945 µM at Kdr. Further, the IC50 was less than 0.945 µM on c-Met, greater than 10.6 µM at AKT, 0.945 to 5.67 µM at IGFR-1 and less than 0.945 µM on PDGFRB.
Regarding `COc1cc(Br)ccc1Nc1nc2ccccc2n1-c1ncnc(Nc2cc(OC)c(OC)c(OC)c2)n1` [Compound 1052], the IC50 at Lck is greater than 7.78 µM; at Zap-70, greater than 7.78 µM; at Itk, greater than 7.78 µM; on EGFR, greater than 7.78 µM; on ErbB2 it was 4.15 to 6.05 µM; at Kdr it was 0.692 to 4.15 µM. For the same compound, the IC50 is greater than 7.78 µM at c-Met, greater than 7.78 µM on AKT, greater than 7.78 µM against IGFR-1 and 4.15 to 6.05 µM on PDGFRB.
With `COc1cc(Nc2ncnc(-n3c(NC4CCc5ccccc54)nc4ccccc43)n2)cc(OC)c1OC` (centres unmarked) [Compound 1044], the IC50 on Lck is 4.71 to 6.87 µM; on Zap-70, greater than 8.83 µM; on Itk it was greater than 8.83 µM; on EGFR it was 4.71 to 6.87 µM; on ErbB2, 0.785 to 4.71 µM; at Kdr, 0.785 to 4.71 µM. The IC50 is greater than 8.83 µM at c-Met, greater than 8.83 µM at AKT, greater than 8.83 µM against IGFR-1 and 6.87 to 8.83 µM on PDGFRB.
As to `COC(=O)Cc1cccc(Nc2ncnc(-n3c(NCc4ccc(OC)cc4)nc4ccccc43)n2)c1` [Compound 548], the IC50 at Lck is greater than 9.08 µM; on Zap-70, greater than 9.08 µM; on Itk, greater than 9.08 µM; on EGFR, greater than 9.08 µM; on ErbB2, greater than 9.08 µM; at Kdr it was less than 0.807 µM. Also, the IC50 at c-Met, on AKT, on IGFR-1 and at PDGFRB was greater than 9.08 µM each time.
In the case of `CN1CCN(Cc2cccc(Nc3ncnc(Nc4cccc5ccccc45)n3)c2)CC1` [Compound 551], the IC50 at Lck, at Zap-70, at Itk, on EGFR, on ErbB2 and on Kdr was greater than 10.6 µM in each case. Besides, the IC50 on c-Met is 8.22 to 10.6 µM; on AKT it was greater than 10.6 µM; at IGFR-1 it was greater than 10.6 µM; at PDGFRB, greater than 10.6 µM.
For `CCC(O)CNc1ncnc(Nc2ccc(OC)c(OC)c2)n1` (centres unmarked) [Compound 788], the IC50 at Lck, at Zap-70, at Itk, at EGFR, on ErbB2 and on Kdr was greater than 14.1 µM each time. Further, the IC50 on c-Met was greater than 14.1 µM; on AKT it was greater than 14.1 µM; at IGFR-1, greater than 14.1 µM; at PDGFRB, 11 to 14.1 µM.
On to `COc1ccc(Nc2ncnc(N(C)c3cccc(Cl)c3)n2)cc1` [Compound 743], for which the IC50 was greater than 13.2 µM at Lck; greater than 13.2 µM at Zap-70; greater than 13.2 µM at Itk; less than 1.17 µM at EGFR; greater than 13.2 µM at ErbB2; greater than 13.2 µM on Kdr. Further, the IC50 at c-Met, on AKT, against IGFR-1 and at PDGFRB was greater than 13.2 µM in each case.
`Cc1ccc2c(c1)CCCN2c1ncnc(NCC2CCCO2)n1` (centres unmarked) [Compound 759]: the IC50 on Lck, at Zap-70, on Itk, at EGFR, at ErbB2 and at Kdr was greater than 13.8 µM in each case. The IC50 at c-Met, at AKT, against IGFR-1 and at PDGFRB was greater than 13.8 µM each time.
On to `N#CCc1ccc(Nc2ncnc(Nc3ccc4c(cnn4Cc4ccccc4)c3)n2)cc1` [Compound 731], for which the IC50 on Lck is 0.925 to 5.55 µM; at Zap-70, 5.55 to 8.09 µM; on Itk it was 0.925 to 5.55 µM; at EGFR it was less than 0.925 µM; on ErbB2, less than 0.925 µM; on Kdr, 0.925 to 5.55 µM. Moreover, the IC50 was 0.925 to 5.55 µM at c-Met, 8.09 to 10.4 µM at AKT, 0.925 to 5.55 µM at IGFR-1 and 0.925 to 5.55 µM on PDGFRB.
On to `CN(c1cccc(Cl)c1)c1ncnc(Nc2ccccc2)n1` [Compound 748], for which the IC50 at Lck is 1.28 to 7.7 µM; on Zap-70 it was greater than 14.4 µM; on Itk, greater than 14.4 µM; at EGFR, less than 1.28 µM; at ErbB2 it was 1.28 to 7.7 µM; on Kdr it was 7.7 to 11.2 µM. Also, the IC50 is 1.28 to 7.7 µM at c-Met, greater than 14.4 µM on AKT, 7.7 to 11.2 µM at IGFR-1 and 1.28 to 7.7 µM on PDGFRB.
As for `Cc1ccc2c(c1)CCCN2c1ncnc(NCCCn2ccnc2)n1` [Compound 772], the IC50 is greater than 12.9 µM on Lck; greater than 12.9 µM on Zap-70; 10 to 12.9 µM at Itk; greater than 12.9 µM at EGFR; greater than 12.9 µM at ErbB2; greater than 12.9 µM at Kdr. For the same compound, the IC50 is greater than 12.9 µM on c-Met, greater than 12.9 µM at AKT, greater than 12.9 µM at IGFR-1 and 10 to 12.9 µM at PDGFRB.
